Columns and labels:
Botrytis cinerea = experiment: Example H: in vivo preventive test on Botrytis cinerea (beans); details: table H, 100 ppm, lesion size 2 days after inoculation
Protocol: Example H: In Vivo Preventive Test on Botrytis cinerea (Beans)
To produce a suitable preparation of active compound, 1 part by weight of active compound is mixed with the stated amounts of solvent and emulsifier, and the concentrate is diluted with water to the desired concentration.
To test for preventive activity, young plants are sprayed with the preparation of active compound. After the spray coating has dried on, 2 small pieces of agar covered with growth of Botrytis cinerea are placed on each leaf. The inoculated plants are placed in a darkened chamber at 20° C. and a relative atmospheric humidity of 100%.
2 days after the inoculation, the size of the lesions on the leaves is evaluated. 0% means an efficacy which corresponds to that of the untreated control, while an efficacy of 100% means that no disease is observed.

Sphaerotheca fuliginea = experiment: Example B: in vivo preventive test on Sphaerotheca fuliginea (powdery mildew on cucurbits); details: table B; 500 ppm; gherkin plants; grading 12 days after contamination
Protocol: Example B: In Vivo Preventive Test on Sphaerotheca fuliginea (Powdery Mildew on Cucurbits) […] Gherkin plants (“Vert petit de Paris” variety), sown in starter cups on a 50/50 peat soil-pozzolana substrate and grown at 24° C., are treated at the Z11 cotyledon stage by spraying with the active ingredient prepared as described above. Plants, used as controls, are treated with the mixture of acetone/tween/DMSO/water not containing the active material. After 24 hours, the plants are contaminated by spraying the cotyledons with an aqueous suspension of Sphaerotheca fuliginea spores (100 000 spores per mL). The spores are collected from infected plants. The contaminated gherkin plants are incubated at about 20° C. and at 70-80% relative humidity. Grading (% of efficacy) is carried out 12 days after the contamination, in comparison with the control plants.

Puccinia recondita = experiment: Example R: in vivo preventive test on Puccinia recondita (brown rust on wheat); details: table R; 500 ppm; wheat plants; grading 12 days after contamination
Protocol: Example R: In Vivo Preventive Test on Puccinia recondita (Brown Rust on Wheat) […] Wheat plants (“Scipion” variety), sown in starter cups on a 50/50 peat soil pozzolana substrate and grown at 22° C., are treated at the 1 leaf stage (10 cm height) by spraying with the active ingredient prepared as described above. Plants, used as controls, are treated with the mixture of acetone/tween/DMSO/water not containing the active material. After 24 hours, the plants are contaminated by spraying the leaves with an aqueous suspension of Puccinia recondita spores (100 000 spores per mL). The spores are collected from an infected plant and are suspended in water containing 2.5 mL/L of Tween 80 at 10%. The contaminated wheat plants are incubated for 24 hours at 20° C. and at 100% relative humidity, and then for 10 days at 20° C. and at 70-80% relative humidity. Grading (% of efficacy) is carried out 12 days after the contamination, in comparison with the control plants.

Septoria tritici = experiment: Example L: in vivo preventive test on Septoria tritici (wheat); details: table L; 500 ppm; wheat plants; grading 24 days after contamination
Protocol: Example L: In Vivo Preventive Test on Septoria tritici (Wheat) […] Wheat plants (“Scipion” variety), sown in starter cups on a 50/50 peat soil pozzolana substrate and grown at 22° C., are treated at the 1 leaf stage (10 cm height) by spraying with the active ingredient prepared as described above. Plants, used as controls, are treated with the mixture of acetone/tween/DMSO/water not containing the active material. After 24 hours, the plants are contaminated by spraying the leaves with an aqueous suspension of cryopreserved Septoria tritici spores (500 000 spores per mL). The contaminated wheat plants are incubated for 72 hours at 18° C. and at 100% relative humidity, and then for 21 days at 90% relative humidity. Grading (% of efficacy) is carried out 24 days after the contamination, in comparison with the control plants.

[1] = log P by HPLC on reversed-phase column (EEC Directive 79/831 Annex V.A8); assay type: physicochemical; details: Table 1; HPLC C18, 40° C., 0.1% aqueous formic acid and acetonitrile gradient
Method in brief: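 Calibration relied on straight-chain alkan-2-ones with 3 to 16 carbon atoms and known log P, with sample values read by linear interpolation of retention time between two adjacent standards. Separation at 40° C used 0.1% aqueous formic acid with acetonitrile rising linearly from 10% to 90%. UV spectra from 200 nm to 400 nm at chromatographic peak maxima gave lambda-max.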

[2] = tested on: Fusarium nivale (var. majus); experiment: Example P: in vivo preventive test on Fusarium nivale (wheat); details: table P, 500 ppm, evaluated 5 days after inoculation
Protocol: Example P: In Vivo Preventive Test on Fusarium nivale (Wheat) [table] To produce a suitable preparation of active compound, 1 part by weight of active compound or active compound combination is mixed with the stated amounts of solvent and emulsifier, and the concentrate is diluted with water to the desired concentration. To test for preventive activity, young plants are sprayed with the preparation of active compound or active compound combination at the stated rate of application. After the spray coating has been dried, the plants are slightly injured by using a sandblast and afterwards they are sprayed with a conidia suspension of Fusarium nivale (var. majus). The plants are placed in the greenhouse under a translucent incubation cabinet at a temperature of approximately 10° C. and a relative atmospheric humidity of approximately 100%.

Leptosphaeria nodorum = experiment: Example J: in vivo preventive test on Leptosphaeria nodorum (wheat); details: table J, 500 ppm, evaluated 8 days after inoculation
Protocol: Example J: In Vivo Preventive Test on Leptosphaeria nodorum Test (Wheat) [table] To produce a suitable preparation of active compound, 1 part by weight of active compound or active compound combination is mixed with the stated amounts of solvent and emulsifier, and the concentrate is diluted with water to the desired concentration. To test for preventive activity, young plants are sprayed with the preparation of active compound or active compound combination at the stated rate of application. After the spray coating has been dried, the plants are sprayed with a spore suspension of Leptosphaeria nodorum. The plants remain for 48 hours in an incubation cabinet at approximately 20° C. and a relative atmospheric humidity of approximately 100%. The plants are placed in the greenhouse at a temperature of approximately 22° C. and a relative atmospheric humidity of approximately 80%.

Pyrenophora teres = experiment: Example N: in vivo preventive test on Pyrenophora teres (barley); details: table N; 500 ppm; barley plants; grading 14 days after contamination
Method in brief: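 Barley (cv. Plaisant) at 1-leaf stage was sprayed with compound, then inoculated 24 h later with P. teres spores (12 000/mL). Plants were held 48 h at 20 °C, 100% RH, then 12 days at 20 °C, 70-80% RH; % efficacy versus solvent-treated controls was graded 14 days post-inoculation.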

## CC(C1CCCc2ccccc21)N(C(=O)c1c(C(F)F)nn(C)c1F)C1CC1 (stereo not shown) [I.23]
Botrytis cinerea
  Efficacy: 99%
Sphaerotheca fuliginea
  Efficacy: 100%
Puccinia recondita
  Efficacy: 97%
Septoria tritici
  Efficacy: 100%
[1]
  logP: 4.08
[2]
  Efficacy: 100%
Leptosphaeria nodorum
  Efficacy: 100%
Pyrenophora teres
  Efficacy: 100%

## Cn1nc(C(F)F)c(C(=O)N(CC2CC(C)(C)Oc3ccccc32)C2CC2)c1F (stereo not shown) [I.33]
Botrytis cinerea
  Efficacy: 96%
Sphaerotheca fuliginea
  Efficacy: 100%
Puccinia recondita
  Efficacy: 97%
Septoria tritici
  Efficacy: 100%
[1]
  logP: 3.53
[2]
  Efficacy: 100%
Leptosphaeria nodorum
  Efficacy: 100%
Pyrenophora teres
  Efficacy: 100%

From patent US9686985B2, “Fungicide N-cycloalkyl-N-bicyclicmethylene-carboxamide derivatives” (BAYER INTELLECTUAL PROPERTY GMBH, priority 2012, dated 2017)
